Experimental data: PubChem BioAssay AID1963848 (Molecular Pharmacology Branch, DTP, NCI, 2024)

System: 379773-124-R-J2-PDC spheroid viability
Test: Anticancer human tumor 379773-124-R-J2-PDC patient-derived endometrial carcinoma cell line growth inhibition [POLQ]
Details: spheroids with HUVEC and MSC; for IC50: curve of first compound; for viability, T/C: stronger effect = lower value; active = viability on the fitted dose curve at most 10% of control; inactive = the rest
How it was run: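 Complex spheroid viability model combining PDC tumour cells with endothelial (HUVEC) and MSC stromal cells. Novobiocin, ART-558 or RP6685 were tested singly and in combination with standard and investigational anticancer drugs. Each was titrated in half-log steps from near clinical Cmax, or from 10 microM where Cmax was unknown.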

[1] = second compound 0.0316 µM, first compound 0.0316 µM
[2] = second compound 0.0316 µM, first compound 0.1 µM
[3] = second compound 0.0316 µM, first compound 0.316 µM
[4] = second compound 0.0316 µM, first compound 1 µM
[5] = second compound 0.1 µM, first compound 0.0316 µM
[6] = second compound 0.1 µM, first compound 0.1 µM
[7] = second compound 0.1 µM, first compound 0.316 µM
[8] = second compound 0.1 µM, first compound 1 µM
[9] = second compound 0.316 µM, first compound 0.0316 µM
[10] = second compound 0.316 µM, first compound 0.1 µM
[11] = second compound 0.316 µM, first compound 0.316 µM
[12] = second compound 0.316 µM, first compound 1 µM
[13] = second compound 1 µM, first compound 0.0316 µM
[14] = second compound 1 µM, first compound 0.1 µM
[15] = second compound 1 µM, first compound 0.316 µM
[16] = second compound 1 µM, first compound 1 µM
[17] = second compound 3.16 µM, first compound 0.0316 µM
[18] = second compound 3.16 µM, first compound 0.1 µM
[19] = second compound 3.16 µM, first compound 0.316 µM
[20] = second compound 3.16 µM, first compound 1 µM
[21] = second compound 10 µM, first compound 0.0316 µM
[22] = second compound 10 µM, first compound 0.1 µM
[23] = second compound 10 µM, first compound 0.316 µM
[24] = second compound 10 µM, first compound 1 µM
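Note: spheroids exposed to drugs for seven days before readout.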
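Throughout, for viability, T/C: percent viability relative to DMSO vehicle control taken as 100%.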

C=CCn1c(=O)c2cnc(Nc3ccc(N4CCN(C)CC4)cc3)nc2n1-c1cccc(C(C)(C)O)n1 + Cc1cccc(N(C)C(=O)C2C(O)CCN2c2nc(C)cc(C(F)(F)F)c2C#N)c1
active: viability, T/C [4] 3.05% | viability, T/C [8] 3.55% | viability, T/C [12] 4% | viability, T/C [16] 2.86% | viability, T/C [20] 2.86% | viability, T/C [24] 3.05%
inactive: viability, T/C (second compound 0.0316 µM, first compound 0.00316 µM) 88.5% | viability, T/C (second compound 0.0316 µM, first compound 0.01 µM) 86% | viability, T/C [1] 85.2% | viability, T/C [2] 98% | viability, T/C [3] 72.2% | viability, T/C (second compound 0.1 µM, first compound 0.00316 µM) 91.4% | viability, T/C (second compound 0.1 µM, first compound 0.01 µM) 98.3% | viability, T/C [5] 93.1% | viability, T/C [6] 98.1% | viability, T/C [7] 68.8% | viability, T/C (second compound 0.316 µM, first compound 0.00316 µM) 100% | viability, T/C (second compound 0.316 µM, first compound 0.01 µM) 91.5% | viability, T/C [9] 96.4% | viability, T/C [10] 90.8% | viability, T/C [11] 63.6% | viability, T/C (second compound 1 µM, first compound 0.00316 µM) 86.5% | viability, T/C (second compound 1 µM, first compound 0.01 µM) 96.7% | viability, T/C [13] 95.1% | viability, T/C [14] 95.3% | viability, T/C [15] 64.9% | viability, T/C (second compound 3.16 µM, first compound 0.00316 µM) 98.2% | viability, T/C (second compound 3.16 µM, first compound 0.01 µM) 90.2% | viability, T/C [17] 88.2% | viability, T/C [18] 94% | viability, T/C [19] 69.5% | viability, T/C (second compound 10 µM, first compound 0.00316 µM) 87.5% | viability, T/C (second compound 10 µM, first compound 0.01 µM) 86.1% | viability, T/C [21] 85.9% | viability, T/C [22] 89.5% | viability, T/C [23] 63%
0.406 µM: IC50 (second compound 10 µM)
0.443 µM: IC50 (second compound 3.16 µM)
0.411 µM: IC50 (second compound 0.316 µM)
0.441 µM: IC50 (second compound 0.1 µM)
0.457 µM: IC50 (second compound 0.0316 µM)
0.416 µM: IC50 (second compound 1 µM)

CCCS(=O)(=O)Nc1ccc(F)c(C(=O)c2c[nH]c3ncc(-c4ccc(Cl)cc4)cc23)c1F + Cc1cccc(N(C)C(=O)C2C(O)CCN2c2nc(C)cc(C(F)(F)F)c2C#N)c1
inactive: viability, T/C [1] 88.6% | viability, T/C [2] 102% | viability, T/C [3] 90.9% | viability, T/C [4] 99.4% | viability, T/C (second compound 0.0316 µM, first compound 3.16 µM) 82.1% | viability, T/C (second compound 0.0316 µM, first compound 10 µM) 62.3% | viability, T/C [5] 101% | viability, T/C [6] 89.5% | viability, T/C [7] 95.2% | viability, T/C [8] 87.4% | viability, T/C (second compound 0.1 µM, first compound 3.16 µM) 86.6% | viability, T/C (second compound 0.1 µM, first compound 10 µM) 58.7% | viability, T/C [9] 97.4% | viability, T/C [10] 98.5% | viability, T/C [11] 94.9% | viability, T/C [12] 87.1% | viability, T/C (second compound 0.316 µM, first compound 3.16 µM) 78.5% | viability, T/C (second compound 0.316 µM, first compound 10 µM) 60.1% | viability, T/C [13] 98.9% | viability, T/C [14] 88.7% | viability, T/C [15] 85.2% | viability, T/C [16] 86.5% | viability, T/C (second compound 1 µM, first compound 3.16 µM) 80.3% | viability, T/C (second compound 1 µM, first compound 10 µM) 64.3% | viability, T/C [17] 92% | viability, T/C [18] 90.4% | viability, T/C [19] 85.7% | viability, T/C [20] 85.3% | viability, T/C (second compound 3.16 µM, first compound 3.16 µM) 73.8% | viability, T/C (second compound 3.16 µM, first compound 10 µM) 63% | viability, T/C [21] 89.9% | viability, T/C [22] 92.1% | viability, T/C [23] 87.7% | viability, T/C [24] 83.9% | viability, T/C (second compound 10 µM, first compound 3.16 µM) 77.8% | viability, T/C (second compound 10 µM, first compound 10 µM) 53.9%
> 10 µM: IC50 (second compound 0.0316 µM) | IC50 (second compound 0.1 µM) | IC50 (second compound 0.316 µM) | IC50 (second compound 1 µM) | IC50 (second compound 3.16 µM) | IC50 (second compound 10 µM)
